Like-named read-outs stand apart in the source and are kept apart here.
Test: Human pharmacokinetics, dose-ranging study
Assay type: in vivo
Settings: for AUC(0-t) / Cmax / half-life / Tmax: human, plasma, po, oral capsule; for Cmax: read-out: Cmax; for half-life: read-out: T1/2 (converted); for Tmax: read-out: Tmax
Procedure: In a dose-ranging study, the pharmacokinetics (PK), safety and tolerability of RX-5902 at various oral doses were evaluated. Subjects with advanced or metastatic solid tumors were administered capsules containing RX-5902 at daily doses of 25-775 mg once weekly, 250-300 mg three times a week, 150-300 mg five times a week, or 300-350 mg seven times a week of RX-5902 for up to 6 dosing cycles. Each cycle consisting of 1-5 doses of RX-5902 per week for 3 weeks followed by 1 week of rest, or 5-7 doses of RX-5902 per week for 4 weeks without any rest per 4-week cycle. All but one subject had fasted from food for at least 8 hours before administration. One subject received 300 mg RX-5902 in fed state. Plasma concentrations were measured on Days 1 and 15, for 48 hrs, using a validated LC-MS/MS assay, and noncompartmental pharmacokinetic parameters were calculated using Phoenix WinNonlin, Version 6.4.
Preliminary PK data after a single administration is presented in FIG. 1 (for Subjects #1-11) and Table 3.

[1] = 25 mg, 25 mg, 1 per week, Day 1, fasted
[2] = 50 mg, 50 mg, 1 per week, Day 1, fasted
[3] = 100 mg, 100 mg, 1 per week, Day 1, fasted
[4] = 150 mg, 150 mg, 1 per week, Day 1, fasted
[5] = 150 mg, 150 mg, 5 per week, Day 1, fasted
[6] = 150 mg, 150 mg, 5 per week, Day 15, fasted
[7] = 200 mg, 200 mg, 5 per week, Day 1, fasted
[8] = 200 mg, 200 mg, 5 per week, Day 15, fasted
[9] = 225 mg, 225 mg, 1 per week, Day 1, fasted
[10] = 250 mg, 250 mg, 3 per week, Day 1, fasted
[11] = 250 mg, 250 mg, 3 per week, Day 15, fasted
[12] = 300 mg, 300 mg, 1 per week, Day 1, fasted

COc1cc(OC)cc(N2CCN(C(=O)Nc3nc4cc(F)ccc4nc3OC)CC2)c1 [RX-5902, 4-(3,5-dimethoxyphenyl)-N-(7-fluoro-3-methoxyquinoxalin-2-yl)piperazine-1-carboxamide]
exposure in fed state compared to fasted state (300 mg oral, one fed subject): significantly higher exposure
AUC(0-t) (25 mg, 25 mg, 1 per week, Day 1, fasted, read-out: AUC0-24): 830 ng·h/mL
AUC(0-t) (25 mg, 25 mg, 1 per week, Day 1, fasted, read-out: AUC0-48): 894 ng·h/mL
Cmax [1]: 99.1 ng/mL
half-life [1]: 5.8 h
Tmax [1]: 6 h
AUC(0-t) (50 mg, 50 mg, 1 per week, Day 1, fasted, read-out: AUC0-24): 1030 ng·h/mL
AUC(0-t) (50 mg, 50 mg, 1 per week, Day 1, fasted, read-out: AUC0-48): 1310 ng·h/mL
Cmax [2]: 109 ng/mL
half-life [2]: 13.2 h
Tmax [2]: 1.5 h
AUC(0-t) (100 mg, 100 mg, 1 per week, Day 1, fasted, read-out: AUC0-24): 1780 ng·h/mL
AUC(0-t) (100 mg, 100 mg, 1 per week, Day 1, fasted, read-out: AUC0-48): 2340 ng·h/mL
Cmax [3]: 252 ng/mL
half-life [3]: 27.6 h
Tmax [3]: 2 h
AUC(0-t) (150 mg, 150 mg, 1 per week, Day 1, fasted, read-out: AUC0-24): 2690 ng·h/mL
AUC(0-t) (150 mg, 150 mg, 1 per week, Day 1, fasted, read-out: AUC0-48): 3280 ng·h/mL
Cmax [4]: 226 ng/mL
half-life [4]: 11.5 h
Tmax [4]: 6 h
AUC(0-t) (150 mg, 150 mg, 5 per week, Day 1, fasted, read-out: AUC0-24): 2150 ng·h/mL
Cmax [5]: 227 ng/mL
Tmax [5]: 2 h
AUC(0-t) (150 mg, 150 mg, 5 per week, Day 15, fasted, read-out: AUC0-24): 3720 ng·h/mL
Cmax [6]: 347 ng/mL
Tmax [6]: 1 h
AUC(0-t) (200 mg, 200 mg, 5 per week, Day 1, fasted, read-out: AUC0-24): 2750 ng·h/mL
Cmax [7]: 337 ng/mL
half-life [7]: 8.5 h
Tmax [7]: 4 h
AUC(0-t) (200 mg, 200 mg, 5 per week, Day 15, fasted, read-out: AUC0-24): 4030 ng·h/mL
Cmax [8]: 440 ng/mL
Tmax [8]: 2 h
AUC(0-t) (225 mg, 225 mg, 1 per week, Day 1, fasted, read-out: AUC0-24): 3420 ng·h/mL
AUC(0-t) (225 mg, 225 mg, 1 per week, Day 1, fasted, read-out: AUC0-48): 4310 ng·h/mL
Cmax [9]: 364 ng/mL
half-life [9]: 12 h
Tmax [9]: 4 h
AUC(0-t) (250 mg, 250 mg, 3 per week, Day 1, fasted, read-out: AUC0-24): 3980 ng·h/mL
AUC(0-t) (250 mg, 250 mg, 3 per week, Day 1, fasted, read-out: AUC0-48): 5210 ng·h/mL
Cmax [10]: 394 ng/mL
half-life [10]: 14 h
Tmax [10]: 2 h
AUC(0-t) (250 mg, 250 mg, 3 per week, Day 15, fasted, read-out: AUC0-24): 4810 ng·h/mL
AUC(0-t) (250 mg, 250 mg, 3 per week, Day 15, fasted, read-out: AUC0-48): 7770 ng·h/mL
Cmax [11]: 403 ng/mL
Tmax [11]: 2 h
AUC(0-t) (300 mg, 300 mg, 1 per week, Day 1, fasted, read-out: AUC0-24): 4680 ng·h/mL
AUC(0-t) (300 mg, 300 mg, 1 per week, Day 1, fasted, read-out: AUC0-48): 6140 ng·h/mL
Cmax [12]: 318 ng/mL
half-life [12]: 14.6 h
AUC(0-t) (300 mg, 300 mg, 1 per week, Day 1, fed, read-out: AUC0-24): 8620 ng·h/mL
AUC(0-t) (300 mg, 300 mg, 1 per week, Day 1, fed, read-out: AUC0-48): 10700 ng·h/mL

Source: US9969698B2, “Quinoxalinyl-piperazinamide methods of use” (REXAHN PHARMACEUTICALS, INC., priority 2015, dated 2018)
